The target in the test is T1, hGR (Homo sapiens, UniProt P04150).
T1 construct: expressed in transfected cells; host or cells: HEK 293T
T1 sequence (P04150 1-777): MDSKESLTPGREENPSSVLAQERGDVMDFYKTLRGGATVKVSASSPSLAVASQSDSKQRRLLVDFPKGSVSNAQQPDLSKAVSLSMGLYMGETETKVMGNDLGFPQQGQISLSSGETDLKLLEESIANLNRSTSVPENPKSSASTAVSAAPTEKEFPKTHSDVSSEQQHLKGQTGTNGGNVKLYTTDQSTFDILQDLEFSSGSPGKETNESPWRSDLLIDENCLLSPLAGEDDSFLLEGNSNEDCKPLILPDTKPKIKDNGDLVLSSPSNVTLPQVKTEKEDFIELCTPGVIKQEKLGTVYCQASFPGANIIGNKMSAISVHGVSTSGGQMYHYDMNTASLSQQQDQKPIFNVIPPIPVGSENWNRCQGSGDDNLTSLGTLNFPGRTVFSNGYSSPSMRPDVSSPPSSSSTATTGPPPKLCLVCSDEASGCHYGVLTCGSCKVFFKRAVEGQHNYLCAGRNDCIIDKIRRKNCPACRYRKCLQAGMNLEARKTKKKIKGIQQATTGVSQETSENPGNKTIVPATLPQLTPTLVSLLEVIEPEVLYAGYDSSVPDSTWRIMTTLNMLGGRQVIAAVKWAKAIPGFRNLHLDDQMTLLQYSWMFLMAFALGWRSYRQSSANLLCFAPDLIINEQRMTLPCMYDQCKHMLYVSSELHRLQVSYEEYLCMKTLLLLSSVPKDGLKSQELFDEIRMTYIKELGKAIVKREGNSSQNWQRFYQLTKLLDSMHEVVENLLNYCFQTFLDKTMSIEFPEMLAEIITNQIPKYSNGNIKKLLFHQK
Description: APRn selectivity: transactivation in HEK293T cells transiently expressing hGR. In kind it is cell-based. The following applies: for GR Antagonist efficacy (%): dexamethasone 10^−9 M; for Emax: HEK-293T, read-out: GR Agonist efficacy (%). Here is the method: Measurement of the APRn Selectivity in HEK 293T.
The HEK-293T cells were cultured and transfected according to the method described above for the PR transactivation assays. The expression vectors pcDNA-hAR, kindly provided by G. A. Coetzee, pchGR (Hellal-Levy, C et al. FEBS Lett 1999, 464, 9), and pchMR (Fagart, J. et al. EMBO J. 1998, 17, 3317) were used for studying the ability of APRn to activate or inactivate the AR, GR and MR, respectively. For each transfection assays, 2 μg of the expression vector was used together with 7 μg of the GRE2-Luc reporter vector. Dihydrotestosterone (DHT), dexamethasone (Dex) and Aldosterone (Aldo) were selected as AR, GR and MR ligands, respectively. They were used at the concentration of 10^−9 M. The APRn agonist and antagonist efficacy for AR, GR and MR were measured as described above for PR. The results are the mean±SEM of three independent experiments.
Transfection assays were performed in HEK 293T cells by using expression vectors for the hAR, hGR and hMR and the GRE2-Luc reporter used for the PR transactivation assays.

The mark [1] stands for this setting: HEK293T transiently expressing hGR, mean±SEM.

The results in this text go back to patent US20130203718A1 (priority 2010, published 2013).

The structures appear in SMILES notation. Where two headings read alike, the source gives them in different places.

Regarding `CC(=O)[C@H]1CC[C@H]2[C@@H]3CC=C4C[C@@H](F)CC[C@]4(C)[C@H]3CC[C@]12C` [APR-16, 3β-Fluoropregn-5-en-20-one], under setting [1], the “GR Antagonist efficacy (%)” value came to 0.1 ± 2.2% and the Emax amounted to 0.25 ± 0.02%.

Regarding `C[C@@H]1CCC2C3CC=C4C[C@@H](F)CC[C@]4(C)C3CC[C@]2(C)[C@H]1F` (stereo partly drawn) [APR-19, 3β,17α-Difluoro-17α-methyl-D-Homo-pregn-5-ene], the Emax came out at 0.26 ± 0.05%. Also, the “GR Antagonist efficacy (%)” value under setting [1] is listed as −3.5 ± 1.4%.

For the compound `CC#C[C@]1(O)CCC2C3CC[C@H]4CCCC[C@]4(C)C3CC[C@@]21C` (stereo partly drawn) [APR-42, 17α-(1-Propynyl)-5α-androstan-17β-ol], under setting [1], the “GR Antagonist efficacy (%)” value was determined as 4.4 ± 3.3% and the Emax stood at 0.22 ± 0.07%.

`CC#C[C@]1(O)CCC2C3CC[C@H]4C[C@@H](F)CC[C@]4(C)C3CC[C@@]21C` (stereo partly drawn) [APR-43, 3β-Fluoro-17α-(1-propynyl)-5α-androstan-17β-ol]: the Emax amounted to 0.17 ± 0.05%. Besides, the “GR Antagonist efficacy (%)” value under setting [1] is −9.0 ± 1.7%.

On to `C[C@]12CCC3C(CC=C4C[C@@H](F)CC[C@@H]43)C1CCC2=O` (stereo partly drawn) [APR-47, 3β-Fluoro-19-nor-androst-5-en-17-one], for which the Emax was determined as 0.16 ± 0.02%. Besides, the “GR Antagonist efficacy (%)” value under setting [1] is 1.5 ± 4.3%.

With `CC#C[C@]1(O)CCC2C3CC=C4C[C@@H](F)CC[C@@H]4C3CC[C@@]21C` (stereo partly drawn) [APR-51, 3β-Fluoro-17α-(1-propynyl)-19-nor-androst-5-en-17β-ol], the Emax worked out at 0.29 ± 0.08%. In addition, the “GR Antagonist efficacy (%)” value under setting [1] was determined as 19.3 ± 7.3%.

Turning to `CC#C[C@]1(O)CCC2C3CC[C@H]4CCCC[C@@H]4C3CC[C@@]21C` (stereo partly drawn) [APR-54, 17α-(1-Propynyl)-19-nor-5-androstan-17β-ol], under setting [1], the “GR Antagonist efficacy (%)” value is −0.1 ± 3.3% and the Emax was found to be 0.15 ± 0.02%.
